Experimental data taken from PubChem BioAssay (NCI).
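Method: 48-hour compound exposure of cells in 96-well plates, five concentrations, linear interpolation of endpoints. TGI is the concentration that stops growth completely.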

Assays:
Assay in all cases: NCI anticancer screen, dose series, 48 h
[1] = test system: A498 renal
[2] = test system: ACHN renal
[3] = test system: CAKI-1 renal
[4] = test system: HL-60(TB) leukemia
[5] = test system: HOP-62 NSCLC
[6] = test system: HOP-92 NSCLC
[7] = test system: IGROV1 ovarian
[8] = test system: KM20L2 colon
[9] = test system: MOLT-4 leukemia
[10] = test system: OVCAR-5 ovarian
[11] = test system: RPMI-8226 leukemia
[12] = test system: SK-MEL-2 melanoma
[13] = test system: SK-OV-3 ovarian
[14] = test system: SR leukemia
[15] = test system: TK-10 renal
[16] = test system: UO-31 renal
[17] = test system: 786-0 renal
[18] = test system: A549 NSCLC
[19] = test system: BT-549 breast
[20] = test system: CCRF-CEM leukemia
[21] = test system: COLO 205 colon
[22] = test system: DU-145 prostate
[23] = test system: EKVX NSCLC
[24] = test system: HCC-2998 colon
[25] = test system: HCT-116 colon
[26] = test system: HCT-15 colon
[27] = test system: HS 578T breast
[28] = test system: HT29 colon
[29] = test system: K-562 leukemia
[30] = test system: KM12 colon
[31] = test system: LOX IMVI melanoma
[32] = test system: M14 melanoma
[33] = test system: MALME-3M melanoma
[34] = test system: MCF7 breast
[35] = test system: MDA-MB-231 breast
[36] = test system: MDA-MB-435
[37] = test system: MDA-N
[38] = test system: NCI-H226 lung
[39] = test system: NCI-H23 lung
[40] = test system: NCI-H460 lung
[41] = test system: NCI-H522 lung
[42] = test system: NCI/ADR-RES ovarian
[43] = test system: OVCAR-3 ovarian
[44] = test system: OVCAR-4 ovarian
[45] = test system: OVCAR-8 ovarian
[46] = test system: PC-3 prostate
[47] = test system: RXF 393 renal
[48] = test system: SF-268 CNS
[49] = test system: SF-295 CNS
[50] = test system: SF-539 CNS
[51] = test system: SK-MEL-28 melanoma
[52] = test system: SK-MEL-5 melanoma
[53] = test system: SN12C renal
[54] = test system: SNB-19 CNS
[55] = test system: SNB-75 CNS
[56] = test system: SW-620 colon
[57] = test system: T-47D breast
[58] = test system: U251 CNS
[59] = test system: UACC-257 melanoma
[60] = test system: UACC-62 melanoma

Structure (SMILES): CCCCCC(=O)OC[n+]1ccc2c(C)c3[nH]c4ccccc4c3c(C)c2c1
- TGI [1]: 2.67 µM
- TGI [2]: 11.1 µM
- TGI [3]: 7.75 µM
- TGI [4]: > 100 µM
- TGI [5]: 4.14 µM
- TGI [6]: > 100 µM
- TGI [7]: 38.6 µM
- TGI [8]: 2.75 µM
- TGI [9]: 8.26 µM
- TGI [10]: 2.75 µM
- TGI [11]: 1.78 µM
- TGI [12]: 29.8 µM
- TGI [13]: 5.13 µM
- TGI [14]: 12 µM
- TGI [15]: 15.4 µM
- TGI [16]: 13 µM

Structure (SMILES): O=C1N[C@@H](c2c[nH]c3ccc(Br)cc23)C(=O)N[C@H]1c1c[nH]c2ccc(Br)cc12
- TGI [17]: 25.6 µM
- TGI [1]: 18.5 µM
- TGI [18]: 33.8 µM
- TGI [2]: 15.8 µM
- TGI [19]: 35.4 µM
- TGI [3]: 30.4 µM
- TGI [20]: 24 µM
- TGI [21]: 20 µM
- TGI [22]: 27.3 µM
- TGI [23]: 29.7 µM
- TGI [24]: 11.8 µM
- TGI [25]: 21.8 µM
- TGI [26]: 37 µM
- TGI [4]: 26.6 µM
- TGI [5]: 27 µM
- TGI [6]: 15.5 µM
- TGI [27]: 34.3 µM
- TGI [28]: 20.2 µM
- TGI [7]: 29.4 µM
- TGI [29]: 18.9 µM
- TGI [30]: 18.6 µM
- TGI [31]: 20.9 µM
- TGI [32]: 21.2 µM
- TGI [33]: 28.8 µM
- TGI [34]: 35.2 µM
- TGI [35]: 26.3 µM
- TGI [36]: 16.8 µM
- TGI [37]: 20.7 µM
- TGI [9]: 20.1 µM
- TGI [38]: 26.9 µM
- TGI [39]: 28.2 µM
- TGI [40]: 27.8 µM
- TGI [41]: 24 µM
- TGI [42]: > 100 µM
- TGI [43]: 28.4 µM
- TGI [44]: 24 µM
- TGI [10]: 28.8 µM
- TGI [45]: 26 µM
- TGI [46]: 16.1 µM
- TGI [11]: 38.2 µM
- TGI [47]: 43.4 µM
- TGI [48]: 26.3 µM
- TGI [49]: 25.2 µM
- TGI [50]: 18.9 µM
- TGI [12]: 29.4 µM
- TGI [51]: 28.5 µM
- TGI [52]: 17.7 µM
- TGI [13]: 31.1 µM
- TGI [53]: 27.4 µM
- TGI [54]: 49.2 µM
- TGI [55]: 9.03 µM
- TGI [14]: 19.3 µM
- TGI [56]: 26.2 µM
- TGI [57]: 36.4 µM
- TGI [15]: 21.7 µM
- TGI [58]: 21.9 µM
- TGI [59]: 26.8 µM
- TGI [60]: 23.2 µM
- TGI [16]: 45 µM
